This is an account of results in PMC11359702, “Synthesis and Biochemical Evaluation of Ethanoanthracenes and Related Compounds: Antiproliferative and Pro-Apoptotic Effects in Chronic Lymphocytic Leukemia (CLL)” (Pharmaceuticals, 2024).

Each structure is given as a SMILES string. “And” between values parts separate entries of the source, which are not always exact repeats. Equal entries are not always repeated.

Data set [1] concerns HG-3 and PGA-1 cell lines. The experiment in a line: alamarBlue cell viability assay, mean of both CLL cell lines. The data set is classed as cell-based, human. The settings on record: Homo sapiens, CLL cell; mean of HG-3 and PGA-1. A general note: Alamar Blue is a resazurin reagent that responds to reducing activity.
The test system of data set [2] is HG-3 cells. Description: LDH cytotoxicity assay (CytoTox 96). In kind it is cell-based. The following applies: HG-3, 10 µM, 24 h, lysis solution = 100%. The source says:
(§1) The lactate dehydrogenase (LDH) assay is used to assess the membrane integrity of cells as a function of the cytoplasmic LDH released. The loss of cell membrane integrity (due to cytotoxic insult) is detectable through LDH release into the cell growth medium. The assay is initiated via the reduction in cellular co-factor NAD^+ to NADH catalyzed via the LDH enzyme. Newly formed NADH catalyzes the acidic reduction in iodonitrotetrazolium chloride (INT) to the highly colored formazan (red) (mediated via the diaphorase enzyme). […] At the 10-µM treatment concentration, mild to moderate cytotoxicity (19–47%) was observed. […] Cytotoxicity remained low to mild at 1 µM (4–18%) with 23a displaying the lowest LDH release (4%).
(§2) Following the treatment of the HG-3 and PGA-1 cells at 10 µM for 24 hr, the amount of LDH released was determined using an LDH assay kit from Promega (G1780). Cell lysis solution = 100% cell lysis and LDH release). Data are presented as % cell death at a concentration of 10 µM. Cells were treated with ethanoanthracene compounds 20a, 20f, 23a and 25n (1 µM and 10 µM) for 24 h. Values are shown as the mean of three independent experiments.
(§3) The cytotoxicity of the selected compounds 20a, 20f, 23a and 25n was determined using the CytoTox 96 non-radioactive cytotoxicity assay (Promega Corporation; 2800 Woods Hollow Road, Madison, WI, USA). CLL cells HG-3 and PGA-1 were incubated for 24 h and then treated with the selected compounds 20a, 20f, 23a and 25n at 10-µM and 1-µM concentrations, following the protocol outlined above in the cell viability assay. After 24 h, the lysis solution (10×) (20 µL) was added, and the cells were incubated for a further 1 h to ensure complete cell death. Supernatant (50 µL) was removed from each well and transferred to a clean 96-well plate. “Substrate mix” (50 µL) was added, and the plate was stored in the dark at 20 °C for 30 min. “Stop solution” (50 µL) was added to each well, and the absorbance at 490 nm was recorded using a Dynatech MR5000 plate reader; the % cell death was determined relative to the control cell lysis solution.

For data set [3], the system named is PGA-1 cells. Description: LDH cytotoxicity assay (CytoTox 96). The data set is classed as cell-based. The following applies: PGA-1, 10 µM, 24 h.
Excerpt: as §1, §2, §3

The test system of data set [4] is HG-3 cells. Description: Annexin V/PI apoptosis assay (FACS). The data set is classed as cell-based, human. As to the method: (§4) The pro-apoptotic effects of selected nitrovinylethanoanthracene compounds 20a and 20f and anthracene chalcones 23a and 25n in HG-3 cells and PGA-1 cells was then investigated using FITC (fluorescein isothiocyanate), Annexin V/PI (propidium iodide) and FACS (fluorescence-activated cell sorting) analysis to characterize the mode of cellular death induced. Apoptosis was assessed as % total apoptosis (total of early (Q3) and late (Q2) apoptosis).
(§5) CLL cells PGA-1 and HG-3 (1 × 10^6 cells/mL) were treated at 37 °C with either the vehicle (1% (v/v) DMSO) or the ethanoanthracene compounds 20a, 20f, 23a and 25n (10 µM, 5 µM and 1 µM) for 48 h, following the protocol previously described. The cells were then harvested via centrifugation at 400× g in a temperature-controlled Sorvall centrifuge. The cells were rinsed with Ca^2+ Annexin-V-binding buffer (0.1 M HEPES, pH 7.4; 0.14 M NaCl; 25 mM CaCl2, 0.5 mL). The samples were resuspended in FITC Annexin V (diluted 1:33 in Ca^2+ Annexin V-binding buffer, 50 µL) and incubated for 10 min (on ice and protected from light). The samples were washed with Annexin-V-binding buffer and resuspended in a PI solution (0.5 µg/mL, 500 µL) and analyzed within 1 h using a BD Accuri C6 flow cytometer counting 10,000 cells using the FlowJo software Version 10 (FlowJo LLC, Ashland, OR, USA).

Data set [5] concerns PGA-1 cells. The experiment in a line: Annexin V/PI apoptosis assay (FACS). In kind it is cell-based, human. As to the method:
as §4, §5

Data set [6] has as its system healthy-donor peripheral blood mononuclear cells (PBMCs). Description: Annexin V/PI assay in donor PBMCs. The data set is classed as cell-based. The settings on record: 0.34 and 0.68 µM, 48 h. The source says:
Whole blood samples from healthy donors (×5) were isolated, prepared and treated following the protocol previously described. The percentage of apoptosis observed in the treatment of isolated donor PBMCs with nitrovinylethanoanthracene 20a is concentration-dependent (Figure 11A). […] For ethanoanthracene 23a, the percentage of total apoptosis observed is illustrated in Figure 11B. […] The percentage of total apoptosis observed in the treatment of isolated donor PBMCs with the anthracene–chalcone 25n (normalized against vehicle 0.5% v/v DMSO) is illustrated in Figure 11C, and the dose-response behavior was also concentration-dependent, with compound 25n moderately toxic to healthy-donor PBMCs when treated at a 5.00 µM concentration (39%).
The human peripheral blood mononuclear cells (PBMCs) were generated as follows: peripheral blood was obtained from healthy donors (n = 2) after informed consent was received. The blood was then placed into a 50-mL falcon tube and diluted with an equal volume of phosphate-buffered saline (PBS). PBMCs were isolated using density-gradient centrifugation with LymphoPrep, as described previously. The cells were resuspended in RPMI media containing 10% FBS and 1% penicillin/streptomycin (P/S). The cells were counted using a haemocytometer and seeded into 96 well plates at a density of 1 × 10^5 cells/well (200 µL), and they were incubated at 37 °C for 1 h prior to compound treatment. The Annexin V/PI assay was used as a preliminary method of assessing the selective toxicity of the above compounds when compared with a previous alamarBlue cell viability assay in CLL cell lines. The assay was carried out as described above for the Annexin V/PI assay previously described above, and it was completed in triplicate on two independent days. Approval for this study was obtained from the School of Pharmacy and Pharmaceutical Sciences Trinity College Dublin Research Ethics Committee (2020-06-01-MS).

The test system of data set [7] is HG-3 cells. Description: alamarBlue viability after pan-caspase inhibitor Z-VAD-FMK pre-treatment. The data set is classed as cell-based, human. The source says: Caspases (cysteine-aspartic proteases) are a family of aspartic acid residue-specific regulatory cysteine proteases that play an essential role in key cellular homeostatic processes such as inflammation and programmed cell death through the induction of apoptosis. To assess whether the biological activity of both major ethanoanthracene classes (nitrostyrene and chalcone-based) is caspase-dependent, compounds 20a and 23a (representing Series 1 and Series 4, respectively) (Figure 13) were selected for evaluation at treatment concentrations of 10 µM and 1 µM across both CLL cell lines using a caspase assay protocol. In HG-3 cells, pre-treatment with pan-caspase inhibitor (CI) Z-VAD-FMK [85] […] Little difference was found between cell viability responses (with or without the caspase inhibitor) at both 10-µM and 1-µM concentrations for compound 20a.
Compounds 20a and 23a (representing Series 1 and Series 4, respectively) were selected for evaluation at two treatment concentrations, 10 µM and 1 µM, across both HG-3 and PGA-1 CLL cells. […] The output was statistically analyzed using a one-way ANOVA with a Bonferroni multiple-comparison test. […]

For data set [8], the system named is chemosensitive MUTU-1 cell line. The arrangement: method as in PMID 31963567. The following applies: chemosensitive MUTU-1 cell line ref 43; cited from earlier work.
Data set [9] relates to chemoresistant DG-75 cell line. More on the design: method as in PMID 31963567. The settings on record: chemoresistant DG-75 cell line ref 43; cited from earlier work.
The subject of data set [10] is HG-3 cells. Description: alamarBlue cell viability assay. The following applies: Homo sapiens, HG-3, 24 h.
Data set [11] deals with PGA-1 cells. The experiment in a line: alamarBlue cell viability assay. The following applies: Homo sapiens, 24 h.
For data set [12], the system named is CLL patients. The arrangement: method as in PMID 23291630, PMID 31160589. The following applies: CLL patients ref 28,29; cited from earlier work.
In data set [13] the test system is cancer cells isolated from CLL patients. The following applies: cancer cells isolated from CLL patients ref 39; cited from earlier work.

For the compound `O=C1C2C3c4ccccc4C(C=C[N+](=O)[O-])(c4ccccc43)C2C(=O)N1c1ccccc1` (stereo not drawn) [Compound 20a], the IC50 – broadly, the concentration at which inhibition is half-maximal – in data set [1] was 550 nM; in data set [8], 210 nM; in [9] it was 710 nM; in data set [10] (read-out: HG-3 IC50), 480 nM; in data set [11] (read-out: PGA-1 IC50) it was 610 nM. For the same compound, the “LDH release (cytotoxicity, % cell death)” value amounted to 33% in data set [2] and 9% in data set [3]. The “total apoptosis (early Q3 + late Q2)” value in data set [4] (HG-3, 1 µM) was 82%; in data set [4] (HG-3, 10 µM), 82–95% and 95%; in [5] (PGA-1, 1 µM), 83%; in [5] (PGA-1, 10 µM), 87–97% and 97%. Further, in data set [6], the “total apoptosis (toxicity) in healthy-donor PBMCs” value is 10–35%. In addition, the “decrease in cell viability after Z-VAD-FMK pre-treatment” value in [7] (HG-3, 1 µM compound) came out at 2%; in [7] (HG-3, 10 µM compound) it was 10%. The viability (usually a per cent measure of how many cells are alive, often set against a control) at 10 µM is 14 to 43% in data set [10] (read-out: cell viability, HG-3, 10 µM, 24 h, vehicle = 100%) and 11% in data set [11] (read-out: cell viability).
With `CC1(C)CCC(CN2CCN(c3ccc(C(=O)NS(=O)(=O)c4ccc(NCC5CCOCC5)c([N+](=O)[O-])c4)c(Oc4cnc5[nH]ccc5c4)c3)CC2)=C(c2ccc(Cl)cc2)C1` [Venetoclax], the overall response in data set [12] was 80%.
Consider `Nc1nc(F)nc2c1ncn2[C@@H]1O[C@H](COP(=O)(O)O)[C@@H](O)[C@@H]1O` [fludarabine phosphate], for which the increase in apoptosis in [13] was 24.6%.
